The values that follow come from ChEMBL document CHEMBL1151698, “Inhibition of aldose reductase from cataracted eye lenses by finger millet (Eleusine coracana) polyphenols” (Bioorg Med Chem, 2008).

≈ marks a conversion by molar mass, not a printed value.

Test [1] concerns Radical scavenging activity. The experiment in a line: Antioxidant activity assessed as DPPH radical scavenging activity after 20 mins. Format: functional. Background: The DPPH test is a chemical assay of radical scavenging.
In test [2] the target is Aldo-keto reductase family 1 member B1 (Homo sapiens, UniProt P15121). The experiment in a line: Inhibition of cataracted human eye lens aldose reductase.

For `COc1cc(/C=C/C(=O)O)ccc1O` [FERULATE], the IC50 in test [1] was 189.1 µg/mL (≈ 974 µM).

`COc1cc(C(=O)O)ccc1O` [VANILLIC ACID]: the IC50 in test [1] worked out at 176.5 µg/mL (≈ 1050 µM).

`O=C(O)c1ccc(O)cc1` [PARABEN]: the IC50 in test [1] worked out at 183.7 µg/mL (≈ 1330 µM).

Turning to `O=c1c(O)c(-c2ccc(O)c(O)c2)oc2cc(O)cc(O)c12` [QUERCETIN], in test [1], the concentration for half-maximal inhibition (IC50) amounted to 56.8 µg/mL (≈ 188 µM).

As for `O=C(O)/C=C/c1ccccc1` [CINNAMIC ACID], the IC50 in test [2] is 460 µM; in test [1], 96.7 µg/mL (≈ 653 µM).

As to `O=C(O)c1cc(O)c(O)c(O)c1` [GALLIC ACID], the IC50 in test [2] is 572 µM; in test [1], 26.9 µg/mL (≈ 158 µM).

For the molecule `O=C(O)/C=C/c1ccc(O)cc1` [COUMARIC ACID], the half-inhibitory concentration (IC50) in test [2] is 989 µM; in test [1] it was 112.01 µg/mL (≈ 682 µM).

Consider `COc1cc(C(=O)O)cc(OC)c1O` [SYRINGIC ACID], for which the results for the IC50 in test [2] and in test [1] were 868 µM and 155.6 µg/mL (≈ 785 µM), respectively.

Regarding `O=C(O)c1ccc(O)c(O)c1` [PROTOCATECHUIC ACID], the half-inhibitory concentration (IC50) is 277 µM in test [2] and 77.63 µg/mL (≈ 504 µM) in test [1].

Usually IC50 stands for the point on the concentration scale where inhibition reaches its midpoint.
